# Reference: patent US7816535B2, “Vinyl-phenyl derivatives for inflammation and immune-related uses” (Synta Pharmaceuticals Corp., priority 2006, dated 2010)
# Test system: IL-2 production
# Assay: Inhibition of IL-2 production in PHA-activated Jurkat cells (ELISA)
# Assay type: cell-based
# Details: Homo sapiens, Jurkat, 20 h, PHA 2.5 μg/mL, IL-2 ELISA
# Protocol: Jurkat cells were placed in a 96 well plate (0.5 million cells per well in 1% FBS medium) then a test compound of this invention was added at different concentrations. After 10 minutes, the cells were activated with PHA (final concentration 2.5 μg/mL) and incubated for 20 hours at 37° C. under CO2. The final volume was 200 μL. Following incubation, the cells were centrifuged and the supernatants collected and stored at −70° C. prior to assaying for IL-2 production. A commercial ELISA kit (IL-2 Eli-pair, Diaclone Research, Besancon, France) was used to detect production of IL-2, from which dose response curves were obtained. The IC50 value was calculated as the concentration at which 50% of maximum IL-2 production after stimulation was inhibited versus a non-stimulation control.
row,SMILES,IC50
1,"CC1=C(c2ccc(NC(=O)c3c(F)cccc3F)cc2)CN(c2nc(C)c(C)o2)CC1 [Compound 82, 2,6-Difluoro-N-{4-[1-(4,5-dimethyl-oxazol-2-yl)-4-methyl-1,2,5,6-tetrahydro-pyridin-3-yl]-phenyl}-benzamide]",59.5 nM
2,"CC1=C(c2ccc(NC(=O)c3c(F)cccc3F)cc2)CCN(C(=O)Oc2ccccc2)C1 [Compound 55, 2,6-Difluoro-N-[4-(1-phenyloxycarbonyl-3-methyl-1,2,5,6-tetrahydro-pyridin-4-yl)-phenyl]-benzamide]",941 nM
3,"O=C(Nc1ccc(C2=C(c3cnco3)CCCC2)cc1)c1c(F)cccc1F [Compound 23, N-[4-(2-oxazol-5-yl-cyclohex-1-enyl)-phenyl]-2,6-difluoro-benzamide]",7.4 nM
4,"COc1ccc(C(=C(C)C)c2ccc(NC(=O)c3c(F)cccc3F)cc2)cc1 [Compound 93, 2,6-Difluoro-N-{4-[2-methyl-1-(4-methoxy-phenyl)-propenyl]-phenyl}-benzamide]",54.6 nM
5,"CC1=C(c2ccc(NC(=O)c3cncnc3C)cc2)CCCC1 [Compound 27, 4-Methyl-pyrimidine-5-carboxylic acid [4-(2-methyl-cyclohex-1-enyl)-phenyl]-amide]",38.9 nM
6,"O=C(Nc1ccc(C2=CCCCC2)cc1)c1ccncc1F [Compound 18, N-(4-Cyclohexenylphenyl)-3-fluoroisonicotinamide]",> 1000 nM
7,"C=CC1=C(c2ccc(NC(=O)c3c(F)cccc3F)cc2)CCC1 [Compound 33, 2,6-Difluoro-N-[4-(2-vinyl-cyclopent-1-enyl)-phenyl]-benzamide]",97.1 nM
8,"O=CC1=C(c2ccc(NC(=O)c3c(F)cccc3F)cc2)CN(c2nccs2)CC1 [Compound 78, 2,6-Difluoro-N-[4-(1-thiazol-2-yl-4-formyl-1,2,5,6-tetrahydro-pyridin-3-yl)-phenyl]-benzamide]",227 nM
9,"CC(=O)OCC(C)=C(C)c1ccc(NC(=O)c2c(F)cccc2F)cc1 [Compound 96, 2,6-Difluoro-N-[4-(1,2-dimethyl-3-acetoxy-propenyl)-phenyl]-benzamide]",631 nM
10,"CCOC(=O)N1CCC(C)=C(c2ccc(NC(=O)c3snnc3C)cc2)C1 [Compound 47, 4-Methyl-[1,2,3]thiadiazole-5-carboxylic acid [4-(1-ethoxycarbonyl-4-methyl-1,2,5,6-tetrahydro-pyridin-3-yl)-phenyl]-amide]",411 nM
11,"O=C(Nc1ccc(C2=C(CO)CCCCC2)cc1)c1c(F)cccc1F [Compound 36, 2,6-Difluoro-N-[4-(2-hydroxymethyl-cyclohept-1-enyl)-phenyl]-benzamide]",> 1000 nM
12,"CC1=C(c2ccc(NC(=O)c3c(F)cccc3F)cc2)CN(c2nc3ccccc3o2)CC1 [Compound 68, 2,6-Difluoro-N-[4-(1-benzooxazol-2-yl-4-methyl-1,2,5,6-tetrahydro-pyridin-3-yl)-phenyl]-benzamide]",95.3 nM
13,"CCOC(=O)C1=C(c2ccc(NC(=O)c3c(F)cccc3F)cc2)CCN(C#N)C1 [Compound 56, 2,6-Difluoro-N-[4-(1-cyano-3-ethoxycarbonyl-1,2,5,6-tetrahydro-pyridin-4-yl)-phenyl]-benzamide]",> 1000 nM
14,"CC1=C(c2ccc(NC(=O)c3ccncc3C)cc2)CN(C(=O)OCc2ccccc2)CC1 [Compound 51, N-[4-(1-benzyloxycarbonyl-4-methyl-1,2,5,6-tetrahydro-pyridin-3-yl)-phenyl]-3-methyl-isonicotinamide]",153 nM
15,"CC(C)=C(c1ccccc1)c1ccc(NC(=O)c2ccncc2C)cc1 [Compound 14, 3-Methyl-N-(4-(2-methyl-1-phenylprop-1-enyl)phenyl)-isonicotinamide]",159 nM
16,"CC1=C(c2ccc(NC(=O)c3c(F)cccc3F)cc2)CCCC1 [Compound 25, N-[4-(2-methyl-cyclohex-1-enyl)-phenyl]-2,6-difluoro-benzamide]",7.2 nM
17,"C=C(C)[C@H]1CCC(C)=C(c2ccc(NC(=O)c3ccncc3C)cc2)C1 [Compound 3, 3-Methyl-N-[4-(2-methyl-5(S)-isopropenyl-cyclohex-1-enyl)-phenyl]-isonicotinamide]",9 nM
18,"CC1=C(c2ccc(NC(=O)c3c(F)cccc3F)cc2)CCN(c2nccs2)C1 [Compound 91, 2,6-Difluoro-N-[4-(1-thiazol-2-yl-3-methyl-1,2,5,6-tetrahydro-pyridin-4-yl)-phenyl]-benzamide]",226 nM
19,"COc1ccccc1C(=C(C)C)c1ccc(NC(=O)c2c(F)cccc2F)cc1 [Compound 95, 2,6-Difluoro-N-{4-[2-methyl-1-(2-methoxy-phenyl)-propenyl]-phenyl}-benzamide]",156 nM

# Now from value to compound:
row,IC50,SMILES
1,44.1 nM,"CC1=C(c2ccc(NC(=O)c3ccncc3F)cc2)CN(c2nnnn2C)CC1 [Compound 85, N-{4-[1-(1-methyl-1H-tetrazol-5-yl)-4-methyl-1,2,5,6-tetrahydro-pyridin-3-yl]-phenyl}-3-fluoro-isonicotinamide]"
2,156 nM,"CCOC(=O)N1CCC(C)=C(c2ccc(NC(=O)c3ccncc3C)cc2)C1 [Compound 48, N-[4-(1-ethoxycarbonyl-4-methyl-1,2,5,6-tetrahydro-pyridin-3-yl)-phenyl]-3-methyl-isonicotinamide]"
3,68 nM,"O=C(Nc1ccc(C2=C(c3cnco3)CCCC2)cc1)c1ccncc1F [Compound 24, N-[4-(2-oxazol-5-yl-cyclohexen-1-yl)-phenyl]-3-fluoroisonicotinamide]"
4,150 nM,"COC(=O)N1CCC(C)=C(c2ccc(NC(=O)c3ccncc3C)cc2)C1 [Compound 103, N-[4-(1-methoxycarbonyl-4-methyl-1,2,5,6-tetrahydro-pyridin-3-yl)-phenyl]-3-methyl-isonicotinamide]"
5,> 1000 nM,CC1=C(c2ccc(NC(=O)c3ccncc3F)cc2)CN(C#N)CC1 [Compound 57]
6,42.1 nM,"CC1=C(c2ccc(NC(=O)c3ccncc3F)cc2)CN(c2ccccn2)CC1 [Compound 66, N-[4-(1-pyridin-2-yl-4-methyl-1,2,5,6-tetrahydro-pyridin-3-yl)-phenyl]-3-fluoro-isonicotinamide]"
7,> 1000 nM,"CC1=C(c2ccc(NC(=O)c3ccncc3F)cc2)CN(CC2CC2)CC1 [Compound 69, N-[4-(1-cyclopropylmethyl-4-methyl-1,2,5,6-tetrahydro-pyridin-3-yl)-phenyl]-3-fluoro-isonicotinamide]"
8,651 nM,"CC1=C(c2ccc(NC(=O)c3ccncc3F)cc2)CN(C(=O)Oc2ccc([N+](=O)[O-])cc2)CC1 [Compound 52, N-{4-[1-(4-nitro-phenyloxycarbonyl)-4-methyl-1,2,5,6-tetrahydro-pyridin-3-yl]-phenyl}-3-fluoro-isonicotinamide]"
9,48.9 nM,"CC1=C(c2ccc(NC(=O)c3ccncc3C)cc2)CN(c2nccs2)CC1 [Compound 59, N-[4-(1-thiazol-2-yl-4-methyl-1,2,5,6-tetrahydro-pyridin-3-yl)-phenyl]-3-methyl-isonicotinamide]"
10,12.4 nM,"CC1=C(c2ccc(NC(=O)c3c(F)cccc3F)cc2)CN(c2ncco2)CC1 [Compound 70, 2,6-Difluoro-N-[4-(1-oxazol-2-yl-4-methyl-1,2,5,6-tetrahydro-pyridin-3-yl)-phenyl]-benzamide]"

# Same assay, conditions: Homo sapiens, PHA 2.5 μg/mL, 20 hours, IL-2 ELISA
row,SMILES,IC50
1,"CC1=C(c2ccc(NC(=O)c3c(F)cccc3F)cc2)CCN(Cc2ccccc2)C1 [Compound 19, N-(4-(1-benzyl-5-methyl-1,2,3,6-tetrahydropyridin-4-yl)phenyl)-2,6-difluorobenzamide]",513 nM
2,"CC1=C(c2ccc(NC(=O)c3c(F)cccc3F)cc2)CCN(C)C1 [Compound 15, N-(4-(1,5-Dimethyl-1,2,3,6-tetrahydropyridin-4-yl)phenyl)-2,6-difluorobenzamide]",> 1000 nM
